Measured values taken from patent US20250290117A1, “MOLECULAR PHENOTYPIC ANTIMICROBIAL SUSCEPTIBILITY TESTING” (priority 2024, published 2025).

How the values were obtained:
Escherichia coli = assay: Molecular phenotypic antimicrobial susceptibility test (extraction or DNA purification prior to PCR); type: cell-based
Procedure: (§1) Detection of Molecular Phenotypic Antimicrobial Susceptibility. Disclosed herein are the methods for the detection of phenotypic antimicrobial susceptibility via molecular methods. The present invention describes how a specimen 100 with a known microbial load is incubated and then exposed to a panel of antimicrobial agents to determine sensitivity (prevention of growth) or resistance (allowance of growth) to the specific antimicrobial agents tested utilizing molecular methods.
(§2) Sample Collection. Specimens 100 are collected from patients using sterile collection processes that are employed in routine clinical care. Specimens are transported to the testing facility in boric acid preservative.
(§3) Preparation of the Specimens for Testing. […] The process for pathogen isolation includes steps of harvesting the pathogen (e.g., via centrifugation), isolating pathogen DNA via a DNA isolation and/or purification kit, and performing PCR on the pathogen DNA via PCR components (e.g., primers, enzymes, buffers) as would be known to the skilled artisan. […] This aliquot is used for antimicrobial susceptibility testing if indicated based on the pathogen detection results. […] Specimens 100 with lower pathogen loads could also be utilized in the antibiotic susceptibility phase of testing with or without a longer incubation period.
(§4) Preparation of Antimicrobial Susceptibility Testing Plates. Antimicrobial solutions are prepared at known concentrations. The specific antimicrobials and their concentrations are selected based on the pathogen of interest and the described antimicrobial resistance breakpoints for that specimen pathogen and antimicrobial combination. These antimicrobials have been selected based on those commonly utilized by healthcare providers in routine clinical care for the specific type of suspected infection. The number and types of antimicrobials utilized can be customized based on the infection source, pathogen detected, patient-specific factors such as allergies or other health conditions (e.g., chronic kidney disease or concurrent medication use), or healthcare provider preferences such as antimicrobial availability or cost.
(§5) The antimicrobial solutions are prepared in liquid culture media (such as Muller Hinton Broth) to achieve the desired antimicrobial concentration and are then stored at −80° C. until use. For a given specimen, each antimicrobial is tested at a single or multiple antimicrobial concentration(s) which is its established breakpoints for sensitivity. The antimicrobial solutions are prepared and plated out for each specific pathogen. […] This allows for evaluation of pathogen load when no antimicrobial is present.
(§6) Specimen Exposure to Antimicrobial Agents. The 1 mL aliquot of the specimen 100 previously mixed with culture media and incubated is obtained. Using optical density measurements as a guide, the specimen 100 is diluted to 0.5 McFarland.
(§7) Antimicrobial exposure plates are typically placed into an incubator for 12-16 hours.
(§8) Nucleic Acid Amplification of Antimicrobial Agent Exposed Pathogens. The antimicrobial exposure plate is removed after the period of incubation. The specimen then undergoes a purification or lysis step. For example, the specimen may undergo a purification step (e.g., magnetic bead-based or other separation protocol to isolate genetic material). In another example, the specimen may undergo a cell lysis step. For example, buffer (e.g., lysis buffer) may be added and incubated in the thermal cycler for preparation for direct PCR. Next, the specimen may undergo a polymerase chain reaction (PCR) testing protocol, whereby a semi-quantitative PCR method is utilized. This may be completed either with or without a specific extraction protocol step. The pathogens can be individually targeted and detected, or a universal genetic sequence can be utilized to detect the antimicrobial susceptibility of the specimen as a whole.

E. coli = assay: Molecular phenotypic antimicrobial susceptibility test, specimen with two detected pathogens incubated together without isolation; type: cell-based, Escherichia coli; settings: E. coli in specimen with two detected pathogens (E. coli and M. morganii) incubated together; for Ct of Sensitive Breakpoint: Ct of controls (average) 15.93; for Molecular Antimicrobial Susceptibility Result: at sensitive breakpoint
Procedure: as §1
as §2, with “preservative. Specimens 100 are subsequently divided into a first sample 104 and a second sample 108.” for “preservative.”
(§9) Preparation of the Specimens for Testing. The specimens 100 are put through a pathogen identification process using PCR technology (e.g., using the first sample 104). The process for pathogen isolation includes steps of harvesting the pathogen (e.g., via centrifugation), isolating pathogen DNA via a DNA isolation and/or purification kit, and performing PCR on the pathogen DNA via PCR components (e.g., primers, enzymes, buffers) as would be known to the skilled artisan. Simultaneously, an additional aliquot of the same specimen (e.g., the second sample 108) is placed with liquid culture media and incubated for 4-6 hours. This aliquot is used for antimicrobial susceptibility testing if indicated based on the pathogen detection results. After pathogen identification is completed and if more than 10,000 cells/mL of bacteria (e.g., eligible bacteria) are detected in the source specimen, the second sample 108 then enters the antimicrobial susceptibility phase of testing. Specimens 100 with lower pathogen loads could also be utilized in the antibiotic susceptibility phase of testing with or without a longer incubation period.
as §4
(§10) The antimicrobial solutions are prepared in liquid culture media (such as Muller Hinton Broth) to achieve the desired antimicrobial concentration and are then stored at −80° C. until use. For a given specimen, each antimicrobial is tested at a single or multiple antimicrobial concentration(s) which is its established breakpoints for sensitivity. The antimicrobial solutions are prepared and plated out for each specific pathogen. This allows ease of use on the day of testing after defrosting the plate 112. Table 1, which illustrates the results of molecular phenotypic antimicrobial susceptibility testing when more than one organism is present in the source specimen, provides an example of an antimicrobial plate 112 prepared for this purpose. Of note, control wells containing only culture media are present on all plates 112. This allows for evaluation of pathogen load when no antimicrobial is present.
(§11) Specimen Exposure to Antimicrobial Agents. The 1 mL aliquot of the specimen 100 previously mixed with culture media and incubated is obtained. Using optical density measurements as a guide, the specimen 100 is diluted to 0.5 McFarland. […]

M. morganii = assay: as above; type: cell-based, Morganella morganii; settings: M. morganii in specimen with two detected pathogens (E. coli and M. morganii) incubated together; for Ct of Sensitive Breakpoint: Ct of controls (average) 19.99; for Molecular Antimicrobial Susceptibility Result: at sensitive breakpoint
Procedure: as §1
as §2, with “preservative. Specimens 100 are subsequently divided into a first sample 104 and a second sample 108.” for “preservative.”
as §9, §4, §10, §11

[1] = test system: pathogens of clinical samples; assay: Molecular phenotypic antimicrobial susceptibility test of clinical samples, extraction DNA purification step prior to PCR (Table 6); type: cell-based
Procedure: as §1, §2, §3, §4, §5, §6, §7, §8

[2] = E. coli isolate 4, at sensitive breakpoint
[3] = E. coli isolate 5, Ct at control (average) 21.0933
[4] = E. coli isolate 5, at sensitive breakpoint
[5] = E. coli, clinical sample of r10-r24
[6] = E. coli, clinical sample of r158-r172
[7] = K. aerogenes, clinical sample of r136-r150
[8] = K. pneumoniae, clinical sample of r121-r135
[9] = M. morganii, clinical sample of r55-r69
[10] = M. morganii, clinical sample of r70-r84
[11] = P. mirabilis, clinical sample of r25-r39
[12] = P. mirabilis, clinical sample of r40-r54

CC1(C)S[C@@H]2[C@H](NC(=O)[C@H](N)c3ccccc3)C(=O)N2[C@H]1C(=O)O [Ampicillin]
Molecular Antimicrobial Susceptibility Result (Escherichia coli; [2]): Resistant
Ct at Sensitive Breakpoint (Escherichia coli; [3]): 24.64
Molecular Antimicrobial Susceptibility Result (Escherichia coli; [4]): Sensitive (Antimicrobial wells with pathogen load detected below the control wells (typically >2 cycle thresholds later) may be reported as Sensitive)
Ct of Sensitive Breakpoint (E. coli): 15.14
Molecular Antimicrobial Susceptibility Result (E. coli): Resistant
Ct of Sensitive Breakpoint (M. morganii): 20.73
Molecular Antimicrobial Susceptibility Result (M. morganii): Resistant
Molecular Antibiotic Susceptibility Result [1, 5]: Resistant
Molecular Antibiotic Susceptibility Result [1, 6]: Sensitive (Antimicrobial wells with pathogen load detected below the control wells (typically >2 cycle thresholds later) may be reported as Sensitive)
Ct ([1]; E. coli, clinical sample of r158-r172, Ct Control Avg 20.146): 29.961
Molecular Antibiotic Susceptibility Result ([1]; E. faecalis, clinical sample of r93-r99): Sensitive (Antimicrobial wells with pathogen load detected below the control wells (typically >2 cycle thresholds later) may be reported as Sensitive)
Ct ([1]; E. faecalis, clinical sample of r93-r99, Ct Control Avg 22.987): 31.697
Molecular Antibiotic Susceptibility Result ([1]; E. faecalis, clinical sample of r100-r106): sensitive
Ct ([1]; E. faecalis, clinical sample of r100-r106, Ct Control Avg 23.073): 37.6
Molecular Antibiotic Susceptibility Result ([1]; E. faecalis, clinical sample of r107-r113): sensitive
Ct ([1]; E. faecalis, clinical sample of r107-r113, Ct Control Avg 22.144): 29.684
Molecular Antibiotic Susceptibility Result ([1]; E. faecalis, clinical sample of r114-r120): Sensitive (Antimicrobial wells with pathogen load detected below the control wells (typically >2 cycle thresholds later) may be reported as Sensitive)
Ct ([1]; E. faecalis, clinical sample of r114-r120, Ct Control Avg 20.822): 33.01
Molecular Antibiotic Susceptibility Result ([1]; E. faecalis, clinical sample of r151-r157): Sensitive (Antimicrobial wells with pathogen load detected below the control wells (typically >2 cycle thresholds later) may be reported as Sensitive)
Ct ([1]; E. faecalis, clinical sample of r151-r157, Ct Control Avg 20.56): Undet
Molecular Antibiotic Susceptibility Result [1, 7]: Resistant
Ct ([1]; K. aerogenes, clinical sample of r136-r150, Ct Control Avg 19.994): 19.504
Molecular Antibiotic Susceptibility Result [1, 8]: Resistant
Ct ([1]; K. pneumoniae, clinical sample of r121-r135, Ct Control Avg 24.272): 21.189
Molecular Antibiotic Susceptibility Result [1, 9]: Resistant
Ct ([1]; M. morganii, clinical sample of r55-r69, Ct Control Avg 28.86): 25.767
Molecular Antibiotic Susceptibility Result [1, 10]: Resistant
Ct ([1]; M. morganii, clinical sample of r70-r84, Ct Control Avg 27.053): 25.947
Molecular Antibiotic Susceptibility Result [1, 11]: Sensitive (Antimicrobial wells with pathogen load detected below the control wells (typically >2 cycle thresholds later) may be reported as Sensitive)
Ct ([1]; P. mirabilis, clinical sample of r25-r39, Ct Control Avg 26.064): 34.177
Molecular Antibiotic Susceptibility Result [1, 12]: Sensitive (Antimicrobial wells with pathogen load detected below the control wells (typically >2 cycle thresholds later) may be reported as Sensitive)
Ct ([1]; P. mirabilis, clinical sample of r40-r54, Ct Control Avg 26.987): 35.741

Cc1nnc(SCC2=C(C(=O)O)N3C(=O)[C@@H](NC(=O)Cn4cnnn4)[C@H]3SC2)s1 [Cefazolin]
Ct at Sensitive Breakpoint (Escherichia coli; E. coli isolate 1, Ct at control (average) 21.238): 20.925
Molecular Antimicrobial Susceptibility Result (Escherichia coli; E. coli isolate 1, at sensitive breakpoint): Resistant
Ct at Sensitive Breakpoint (Escherichia coli; E. coli isolate 2, Ct at control (average) 21.270): 19.313
Molecular Antimicrobial Susceptibility Result (Escherichia coli; E. coli isolate 2, at sensitive breakpoint): Resistant
Ct at Sensitive Breakpoint (Escherichia coli; E. coli isolate 3, Ct at control (average) 22.0995): 20.834
Molecular Antimicrobial Susceptibility Result (Escherichia coli; E. coli isolate 3, at sensitive breakpoint): Resistant
Ct at Sensitive Breakpoint (Escherichia coli; E. coli isolate 4, Ct at control (average) 17.5733): 17.23
Molecular Antimicrobial Susceptibility Result (Escherichia coli; [2]): Resistant
Ct at Sensitive Breakpoint (Escherichia coli; [3]): 25.36
Molecular Antimicrobial Susceptibility Result (Escherichia coli; [4]): Sensitive (Antimicrobial wells with pathogen load detected below the control wells (typically >2 cycle thresholds later) may be reported as Sensitive)
Ct of Sensitive Breakpoint (E. coli): 15.46
Molecular Antimicrobial Susceptibility Result (E. coli): Resistant
Ct of Sensitive Breakpoint (M. morganii): 21.60
Molecular Antimicrobial Susceptibility Result (M. morganii): Resistant
Molecular Antibiotic Susceptibility Result [1, 5]: Sensitive (Antimicrobial wells with pathogen load detected below the control wells (typically >2 cycle thresholds later) may be reported as Sensitive)
Molecular Antibiotic Susceptibility Result [1, 6]: Sensitive (Antimicrobial wells with pathogen load detected below the control wells (typically >2 cycle thresholds later) may be reported as Sensitive)
Molecular Antibiotic Susceptibility Result [1, 7]: Resistant
Molecular Antibiotic Susceptibility Result [1, 8]: Sensitive (Antimicrobial wells with pathogen load detected below the control wells (typically >2 cycle thresholds later) may be reported as Sensitive)
Molecular Antibiotic Susceptibility Result [1, 9]: Resistant
Molecular Antibiotic Susceptibility Result [1, 10]: Resistant
Molecular Antibiotic Susceptibility Result [1, 11]: Resistant
Molecular Antibiotic Susceptibility Result [1, 12]: Sensitive (Antimicrobial wells with pathogen load detected below the control wells (typically >2 cycle thresholds later) may be reported as Sensitive)
